Test results: patent publication US20020111314A1, “Novel stimulation of gene expression and protein synthesis of heat shock protein 72/73 (Hsp 70)” (The Trustees of Columbia University, priority 1995, published 2002)
Square brackets hold non-standard residues; d marks the D form. Peptide text beside a SMILES is read from it. Nle = CCCC[C@H](N)C(=O)O

Tested on: Hsp70
Experiment: Hsp70 turnover (pulse-chase) in HepG2 cells
Format: cell-based, human
Protocol: FIGS. 4A-4B: Effects of ALLN on Hsp70 turnover and synthesis rates in HepG2 cells. Confluent culture dishes were preincubated for 4 hours with serum-free MEM containing either 1.5% BSA alone (Control) or BSA plus 40 μg/ml of ALLN (ALLN). (A) The preincubated cells were radiolabeled with 3H-leucine (150 μCi/ml) in serum-free, leucine-free medium with/without ALLN for 20 min., washed 3 times with medium free of isotope and then chased in serum-free medium containing BSA with/without ALLN for up to 20 hours. At the indicated time points, cells were harvested and lysed. Samples were immediately stored in a −80° C. freezer. Immunoprecipitation of Hsp70 was performed as described in FIG. 1. […]
FIGS. 8A-8C: Effects of ALLN on Hsp70 synthesis and turnover rates in HepG2 cells. […] Immunoprecipitates were analyzed on SDS-PAGE and fluorography (A) and also aliquoted for scintillation counting (B). […]
Since ALLN is a cysteine protease inhibitor, the possibility that protection of Hsp70 from proteolytic degradation accounted for the sharp increase in Hsp70 induced by ALLN was tested (Rock, et al., 1994; Ward, et al., 1995; Hiwasa, et al., 1990; Inoue, et al., 1991; and Sakata, et al., 1993). To determine whether ALLN stabilizes Hsp70, the turnover rate of radiolabeled Hsp70 in the presence or absence of ALLN (40 μg/ml) was measured in a pulse-chase experiment. […]

`CCCC[C@@H](C=O)NC(=O)[C@H](CC(C)C)NC(=O)[C@H](CC(C)C)NC(C)=O` [ALLN, N-acetyl-leucyl-leucyl-norleucinal] (Ac-Leu-Leu-[Nle]-aldehyde) was tested, and the “increase in the half-life of Hsp70” value (ALLN 40 μg/ml vs without ALLN) was 3-4 fold and the “half life of newly synthesized Hsp70 in the presence of ALLN” value (ALLN 40 μg/ml, pulse-chase) was “about 6 hours”.
